According to paper PMC9787607, “A Novel Protocol for the Synthesis of 1,2,4-Oxadiazoles Active against Trypanosomatids and Drug-Resistant Leukemia Cell Lines” (Tropical Medicine and Infectious Disease, 2022):

Key:
[1] = test system: L. amazonensis promastigotes; test: Anti-L. amazonensis promastigote assessment (MTT); assay type: cell-based; settings: Leishmania amazonensis; 48 h, MTT; read-out: EC50 L. amazonensis promastigotes
In short: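 Stationary-phase promastigotes (MHOM/BR/75/Josefa) in Schneider's medium with 10% FBS, 0.3% DMSO vehicle, exposed 48 h at 27 °C; 10 µM amphotericin B as positive control. MTT viability read at 570 nm, normalised to controls; EC50 by logarithmic regression, mean ± SD of three independent experiments.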

FEPS (K562/DNR) = test: MTT cytotoxicity to MDR CML cell line FEPS; assay type: cell-based, human; settings: for RR (relative resistance) FEPS: (EC50 MDR cells)/(EC50 parental cells), FEPS/K562; for EC50: Homo sapiens, K562, 72 h, MTT
In short: (§1)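 K562 and its MDR sublines Lucena-1 (maintained in 60 nM VCR) and FEPS (500 nM DNR) seeded at 2 × 10^4 cells/mL in RPMI-1640 with 10% FBS, treated with compounds at 1–100 μM (0.5% DMSO controls). MTT 0.5 g/L for 3 h, A570 read; EC50 by logarithmic regression, three independent experiments.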

[2] = test system: drug-sensitive and drug-resistant chronic myeloid leukemia cell lines (K562, Lucena-1, FEPS); test: MTT cytotoxicity to CML cell lines, statements over all lines; assay type: cell-based; settings: Homo sapiens, K562-Lucena 1, statement over K562, Lucena-1 and FEPS; read-out: EC50 against CML cell lines
Procedure: The CML cell lines K562, Lucena-1 (K562/VCR), and FEPS (K562/DNR) were cultured in RPMI-1640 medium supplemented with 25 mM HEPES and 2 g L^−1 sodium bicarbonate adjusted to pH 7.4 with NaOH, 100 U penicillin and […] streptomycin. All media were supplemented with 10% FBS. Dr. Vivian M. Rumjanek (Instituto de Bioquímica Médica, UFRJ, Brazil) kindly donated Lucena-1 and FEPS cells. Briefly, K562 cells were exposed to increasing concentrations of the chemotherapeutic drugs vincristine sulfate (VCR) and daunorubicin hydrochloride (DNR) (both from Sigma-Aldrich), as described previously. Lucena-1 (K562/VCR) and FEPS (K562/DNR) cells were cultured in the presence of either 60 nM VCR or 500 nM DNR to maintain the MDR phenotypes. For subcultures, cells were harvested every three days followed by washing with cold FBS, and a final concentration of 2 × 10^4 cells mL^−1 was maintained at 37 °C in 5% CO2.
Cell viability was determined by the 3-(4,5-dimethylthiazol-2-yl)-2,5-diphenyltetrazolium (MTT) colorimetric assay. CML cells (2 × 10^4 cells·mL^−1) were incubated for 72 h at 37 °C, followed by treatment with compounds at a range of concentrations (100–1 μM). Negative controls were prepared with 0.5% DMSO. An MTT salt solution was added to each well to a final concentration of 0.5 g·L^−1, and plates were incubated at 37 °C in 5% CO2 for 3 h. After centrifugation, 200 μL DMSO was added to dissolve the dark-blue formazan crystals formed by MTT reduction. Absorbance was measured on a microplate reader at 570 nm, which is directly proportional to formazan contents and indicative of living cells.

Lucena-1 (K562/VCR) = test: cells; assay type: cell-based, human; settings: for RR (relative resistance) Lucena-1: (EC50 MDR cells)/(EC50 parental cells), Lucena-1/K562; for EC50: Homo sapiens, Lucena 1, 72 h, read-out: EC50 Lucena-1
In short: as §1

RAW 264.7 cells = test: Cytotoxicity to RAW 264.7 cells (MTT); assay type: cell-based, murine; settings: Mus musculus, RAW264.7; 48 h, MTT; read-out: EC50 RAW
Procedure: LLC-MK2 kidney fibroblasts (ATCC) and RAW 264.7 macrophages (ATCC) were cultivated in culture flasks in complete DMEM with 5% FBS at 37 °C in 5% CO2. The LLC-MK2 cell monolayer was detached by treatment with trypsin-EDTA 0.05% for 5 min at 37 °C. The RAW cell monolayer was detached mechanically. In both cases, the cells were centrifuged at 480× g for 6 min and resuspended in complete DMEM with 5% FBS, and the cell density was determined by counting with trypan-blue dye exclusion on Neubauer chambers before use.
RAW 264.7 cells were seeded in a 96-well microplate (2.0 × 10^4 cells per well) in complete DMEM with 5% FBS (120 µL per well). After incubation for 24 h at 37 °C in 5% CO2, the medium was renewed, and compounds were added at a range of concentrations in triplicate (100–1 μM). Untreated cells and cells treated with DMEM and 10% DMSO were used as negative and positive controls, respectively. Vehicle control containing DMEM and 0.3% DMSO was maintained for comparison. After incubation for 48 h at 37 °C in 5% CO2, the medium was renewed, and an MTT solution in PBS was added (3.0 mM, 20 µL per well). After incubation for 2 h at 37 °C in 5% CO2, the supernatant was removed, and MTT formazan was dissolved in DMSO (150 µL per well). Absorbance was measured using a microplate reader at 570 nm.
(§2) The percent cell or parasite viability was calculated by the formula: % viability = [(A − P)/(N − P)] × 100, A = absorbance of specific well, P = positive control, N = negative control. Determination of half-maximal effective concentrations (EC50), calculated by logarithmic regression, and significance analysis (p < 0.05), using ANOVA and Dunnett’s test, by GraphPad Prism 7.0 software. The results are expressed as the mean and standard deviation (SD) of three independent experiments.

[3] = test system: L. amazonensis amastigotes; test: Anti-L. amazonensis amastigote assessment in RAW 264.7 macrophages; assay type: cell-based, Leishmania amazonensis; settings: for EC50: Leishmania amazonensis, RAW264.7, in RAW 264.7, 48 h, read-out: EC50 L. amazonensis intracellular amastigotes; for S.I. (selectivity index): host cell/parasite EC50 ratio, RAW/L. amazonensis
Procedure: RAW 264.7 cells were seeded in a 96-well microplate (2.0 × 10^4 cells per well) in complete DMEM with 5% FBS and incubated for 3 h at 37 °C in 5% CO2 for cell adhesion. The medium was renewed, and L. amazonensis promastigotes (3.0 × 10^5 parasites per well) were added. After 24 h of incubation at 37 °C in 5% CO2, the cell monolayer was washed with PBS to remove noninternalized parasites, the medium was renewed, and compounds were added at a range of concentrations in triplicate (100–1 μM). Untreated infected cells and noninfected RAW 264.7 cells were used as negative and positive controls, respectively. Vehicle control containing DMEM and 0.3% DMSO was maintained for comparison. After incubation for 48 h at 37 °C in 5% CO2, the medium was removed, and a solution containing 0.02% SDS in PBS (20 µL per well) was added. Macrophage lysis and amastigote release were accompanied under an inverted microscope for 10–15 min. SIM with 12.5% SFB (80 µL per well) was added, parasites were allowed to differentiate into promastigotes for 48 h at 27 °C, and an MTT salt solution in PBS was added (3.0 mM, 20 µL per well). After incubation for 2 h at 27 °C, the MTT formazan was dissolved by adding 120 µL of solubilizing buffer (50% isopropanol, 40% acetate buffer pH 5.4, 10% Triton X). Absorbance was measured using a microplate reader at 570 nm.
as §2

Structure (SMILES)	EC50 [1] [µM]	RR (relative resistance) FEPS (FEPS (K562/DNR))	EC50 (FEPS (K562/DNR)) [µM]	EC50 [2] [µM]	RR (relative resistance) Lucena-1 (Lucena-1 (K562/VCR))	EC50 (Lucena-1 (K562/VCR)) [µM]	EC50 (RAW 264.7 cells) [µM]	EC50 [3] [µM]	S.I. (selectivity index) [3]	lowest concentration with significant amastigote growth inhibition compared with host cell toxicity ([3]; L. amazonensis vs RAW 264.7, p < 0.05) [µM]
C(=C\c1nc(-c2ccccc2)no1)/c1cccnc1 [Compound 15, (E)-3-phenyl-5-[2-pyridyn-3-yl-vinyl]-1,2,4-oxadiazole]	53.6 ± 2.2	0.68	18.7 ± 3.9	< 20	0.97	26.7 ± 7.2				
COc1cc(/C=C/c2nc(-c3ccccc3)no2)cc(OC)c1OC [Compound 12, (E)-3-phenyl-5-[2-(3,4,5-trimethoxyphenyl)vinyl]-1,2,4-oxadiazole]	26 ± 3	1.42	25.5 ± 4.9	< 20	2.42	43.5 ± 1.8	> 100	50.1 ± 16.4	>2.0	
COc1cc(/C=C/c2nc(-c3cc(OC)c(OC)c(OC)c3)no2)cc(OC)c1OC [Compound 23, (E)-3-(3,4,5-trimethoxyphenyl)-5-[2-(3,4,5-trimethoxyphenyl)-vinyl]-1,2,4-oxadiazole]	12.2 ± 0.7	0.42	5.5 ± 0.6		0.94	12.4 ± 2.5	> 100	13.5 ± 3.6	>7.4	16
COc1cc(-c2noc(/C=C/c3ccc4c(c3)OCO4)n2)cc(OC)c1OC [Compound 24, (E)-3-(3,4,5-trimethoxyphenyl)-5-[2-(3,4-methylenedioxy-phenyl)vinyl]-1,2,4-oxadiazole]	10 ± 2.7	0.15	8.9 ± 0.3	< 20	1.37	82.6 ± 10.8	58.8 ± 6.1	24.8 ± 10.4	2.3	
